Square brackets hold non-standard residues; d marks the D form. Peptide text beside a SMILES is read from it. Ala(4-thiazolyl) = N[C@@H](Cc1cscn1)C(=O)O; 2Pal = N[C@@H](Cc1ccccn1)C(=O)O; 3Pal = N[C@@H](Cc1cccnc1)C(=O)O; 2Thi = N[C@@H](Cc1cccs1)C(=O)O
Legend:
Mu-type opioid receptor = Mu-type opioid receptor (Cavia porcellus, UniProt P97266); experiment: Inhibition of [3H]DAMGO binding to Opioid receptor mu 1 of guinea pig brain
[1] = molecular target: Kappa-type opioid receptor (Cavia porcellus, UniProt P41144); experiment: Inhibition of [3H]- U 69593 from Opioid receptor kappa 1 of guinea pig brain
Kappa-type opioid receptor, sequence (P41144 whole entry): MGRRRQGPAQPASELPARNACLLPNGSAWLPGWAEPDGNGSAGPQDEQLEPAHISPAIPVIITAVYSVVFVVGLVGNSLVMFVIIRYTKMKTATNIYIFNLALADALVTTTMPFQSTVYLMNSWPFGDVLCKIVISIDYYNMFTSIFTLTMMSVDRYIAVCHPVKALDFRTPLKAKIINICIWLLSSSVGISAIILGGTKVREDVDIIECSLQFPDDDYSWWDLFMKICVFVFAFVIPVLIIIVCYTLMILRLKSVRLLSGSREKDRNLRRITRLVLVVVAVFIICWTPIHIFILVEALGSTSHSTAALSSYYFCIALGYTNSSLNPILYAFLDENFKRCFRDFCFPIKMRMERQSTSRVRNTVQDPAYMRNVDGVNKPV

Mu-type opioid receptor, sequence (P97266 whole entry): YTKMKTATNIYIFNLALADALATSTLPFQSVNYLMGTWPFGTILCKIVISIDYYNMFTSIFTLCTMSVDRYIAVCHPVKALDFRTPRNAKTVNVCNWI

Row | Compound | Ki (Mu-type opioid receptor) | Ki [1]
1 | CC(C)[C@H](NC(=O)[C@H](CC(=O)O)NC(=O)[C@H](Cc1cccc(F)c1)NC(=O)[C@H](C)NC(=O)[C@@H](N)Cc1ccc(O)cc1)C(=O)N[C@H](C(=O)NCC(N)=O)C(C)C (stereo in doubt; 2a) | 0.411 µM | > 10 µM
2 | Cc1ccc(C[C@H](NC(=O)[C@H](C)NC(=O)[C@@H](N)Cc2ccc(O)cc2)C(=O)N[C@@H](CC(=O)O)C(=O)N[C@H](C(=O)N[C@H](C(=O)NCC(N)=O)C(C)C)C(C)C)cc1 | > 10 µM | > 10 µM
3 | H-YAHDVVG-NH2 | > 10 µM | > 10 µM
4 | CC(C)[C@H](NC(=O)[C@H](CC(=O)O)NC(=O)[C@H](Cc1cccs1)NC(=O)[C@H](C)NC(=O)[C@@H](N)Cc1ccc(O)cc1)C(=O)N[C@H](C(=O)NCC(N)=O)C(C)C (H-YA[2Thi]DVVG-NH2) | 0.419 µM | > 10 µM
5 | CC(NC(=O)[C@@H](N)Cc1ccc(O)cc1)C(=O)N[C@@H](Cc1ccccc1)C(=O)N[C@@H](CC(=O)O)C(=O)N[C@H](C(=O)N[C@H](C(=O)NCC(N)=O)C(C)C)C(C)C (single isomer, unassigned) [DELTORPHIN C] | 0.677 µM | > 10 µM
6 | Cc1c(C)c(C)c(C[C@H](NC(=O)[C@H](C)NC(=O)[C@@H](N)Cc2ccc(O)cc2)C(=O)N[C@@H](CC(=O)O)C(=O)N[C@H](C(=O)N[C@H](C(=O)NCC(N)=O)C(C)C)C(C)C)c(C)c1C (stereo in doubt; 5a) | > 10 µM | > 10 µM
7 | CC(C)[C@H](NC(=O)[C@H](CC(=O)O)NC(=O)[C@H](Cc1ccc(F)cc1)NC(=O)[C@H](C)NC(=O)[C@@H](N)Cc1ccc(O)cc1)C(=O)N[C@H](C(=O)NCC(N)=O)C(C)C | 10 µM | > 10 µM
8 | CC(C)[C@H](NC(=O)[C@H](CC(=O)O)NC(=O)[C@H](Cc1c(F)c(F)c(F)c(F)c1F)NC(=O)[C@H](C)NC(=O)[C@@H](N)Cc1ccc(O)cc1)C(=O)N[C@H](C(=O)NCC(N)=O)C(C)C | > 10 µM | > 10 µM
9 | CC(C)[C@H](NC(=O)[C@H](CC(=O)O)NC(=O)[C@H](Cc1cscn1)NC(=O)[C@H](C)NC(=O)[C@@H](N)Cc1ccc(O)cc1)C(=O)N[C@H](C(=O)NCC(N)=O)C(C)C (H-YA[Ala(4-thiazolyl)]DVVG-NH2) | 2.8 µM | > 10 µM
10 | CC(C)[C@H](NC(=O)[C@H](CC(=O)O)NC(=O)[C@H](Cc1ccccn1)NC(=O)[C@H](C)NC(=O)[C@@H](N)Cc1ccc(O)cc1)C(=O)N[C@H](C(=O)NCC(N)=O)C(C)C (H-YA[2Pal]DVVG-NH2) | 2.93 µM | > 10 µM
11 | CC(C)[C@H](NC(=O)[C@H](CC(=O)O)NC(=O)[C@H](Cc1cccnc1)NC(=O)[C@H](C)NC(=O)[C@@H](N)Cc1ccc(O)cc1)C(=O)N[C@H](C(=O)NCC(N)=O)C(C)C (H-YA[3Pal]DVVG-NH2) | 10 µM | > 10 µM
12 | CC(C)[C@H](NC(=O)[C@H](CC(=O)O)NC(=O)[C@H](Cc1cccc(F)c1)NC(=O)[C@H](C)NC(=O)[C@@H](N)Cc1ccc(O)cc1)C(=O)N[C@H](C(=O)NCC(N)=O)C(C)C (stereo in doubt; 2b) | 3.48 µM | > 10 µM
13 | Cc1c(C)c(C)c(C[C@H](NC(=O)[C@H](C)NC(=O)[C@@H](N)Cc2ccc(O)cc2)C(=O)N[C@@H](CC(=O)O)C(=O)N[C@H](C(=O)N[C@H](C(=O)NCC(N)=O)C(C)C)C(C)C)c(C)c1C (stereo in doubt; 5b) | > 10 µM | > 10 µM

— ChEMBL document CHEMBL1128290, “Opioid receptor binding requirements for the delta-selective peptide deltorphin. I: Phe3 replacement with ring-substituted and heterocyclic amino acids” (J Med Chem, 1995)
